The nature of this data set: Pharmacokinetic study, bioavailability of folic acid encapsulated in zein nanoparticles. Type of data set: in vivo, male Wistar rats. The following applies: male, Wistar; for bioavailability: serum, rat, read-out: FR (relative bioavailability in percentage); for AUC: read-out: AUC (×10^4) (converted). As for the experimental part: The pharmacokinetic studies were carried out according to the rules of the ethics committee of the Institution as well as the European laws on experimental animals (86/609/EU). To that end, 20 male Wistar rats with an average weight of 200 g were subjected to normal conditions of light-darkness (12 hours-12 hours), and during the week before the study they were fed with a folic acid-deficient feed (Folic Acid Deficient Diet. TD. 95247. Harlan, USA) and water. Twelve hours before the administration of the formulations, the rats were isolated in metabolic cages without access to food, but with free access to drinking water.
The animals were divided into 4 treatment groups (5 rats per group). Only 1 mL of PBS (Phosphate Buffer, pH 7.4) was orally administered to the first of the group. The two following groups were treated with single oral doses of 1 mg/kg (200 μg/rat) of folic acid (Aditio, Panreac Quimica, Barcelona, Spain) incorporated in zein nanoparticles, or in free form (not encapsulated) dissolved in water. 1 mL of each of the different formulations dispersed in water was administered through a gastroesophageal cannula. Finally, the same dose of free folic acid (1 mg/kg) dissolved in phosphate buffer (PBS) (0.5 mL) was intravenously administered to the fourth group in the saphenous vein. Before the administration of the formulations, blood was extracted from the tail saphenous vein for the purpose of checking the baseline level of the vitamin in each rat. After the administration, a volume of blood of approximately 500 μL was extracted at different times using serum-separating tubes ([…] Microtube 1.1 mL Z-Gel). In all the cases, to prevent the pain of the rats, the extraction was carried out after anesthetizing the animal with inhalational anesthesia (isoflurane:oxygen), checking their vital signs at all times.
The blood volume was subsequently replaced by intraperitoneally administering 500 μL of physiological saline previously heated to the temperature of the animal. During this period, the condition of the animals (mobility, aggressiveness, allergic reactions and temperature) was examined, no significant changes being observed.
The quantification of folic acid in the serum samples, obtained after centrifuging the tubes with blood (6,000 rpm, 20 minutes, 20° C.), was carried out by means of an enzyme immunoassay technique. To that end, an Elisa Kit (Diagnostic automation, INC. Calabasas, Calif. USA) approved by the FDA for the quantitative determination of folic acid in foods, was used. The serum samples were quantified without prior treatment and following the manufacturer's specifications.
In all the studied cases, the differences in the serum folic acid concentrations found by both methods were less than 10%. Therefore, the enzyme immunoassay technique was chosen to quantify all the samples, since it requires a smaller amount of serum for the analysis thereof and is a simpler and quicker technique, the limit of detection of which (2 ng/mL) is much lower than that of the chromatographic technique.
The pharmacokinetic study was divided into three phases. The first of them consisted of intravenously administering 1 mg/kg of folic acid dissolved in phosphate buffer; the second of them consisted of orally administering to the rats 1 mL of phosphate buffer (PBS) to a group of 5 male Wistar rats (the baseline levels of the vitamin over time were studied in this group of rats). Finally, the third phase consisted of orally administering 1 mg/kg of (i) folic acid dissolved in water, (ii) folic acid encapsulated in zein nanoparticles to groups of rats formed by 5 animals.
After the administration, a volume of blood of approximately 500 μL was extracted at different times (0, 1, 2, 3, 8 and 24 hours) and collected in serum-separating tubes, subsequently recovering the blood volume of the animal with an equivalent volume of saline by intraperitoneal route. […]

Setting [1] is: rat serum, intravenous route, 1 mg/kg folic acid in PBS, mean ± SD, n = 5.
Setting [2] is: rat serum, oral route, 1 mg/kg folic acid, mean ± SD, n = 5.

Like-named read-outs stand apart in the source and are kept apart here.

In general, bioavailability refers to the share of a dose that reaches the circulation, judged against a reference dose that is usually intravenous. Usually Cmax stands for the highest concentration seen after dosing. As usually defined, the MRT is the average time that molecules of a dose stay in the body. Usually AUC stands for the area under the concentration-time curve, a measure of exposure. What is called Tmax is the time at which the peak concentration occurs. Turning to `Nc1nc2ncc(CNc3ccc(C(=O)N[C@@H](CCC(=O)O)C(=O)O)cc3)nc2c(=O)[nH]1` [Non-encapsulated FA, folic acid], the bioavailability (intravenous route, 1 mg/kg folic acid in PBS) turned out to be 100%. In addition, the bioavailability (oral route, 1 mg/kg folic acid, mean ± SD, n = 5) was found to be 36.3 ± 7.2%. For the same compound, under setting [1], the Cmax was determined as 4230 ± 1650 ng/mL, the MRT is 57.8 min and the AUC was 3580 ng·h/mL. For the same compound, under setting [2], the concentration peaked (Cmax) at 191 ± 41 ng/mL, the MRT was 384 min, the Tmax was 58.8 min and the AUC was 1300 ng·h/mL.

The record behind these values is patent US9381252B2, “Nanoparticles for encapsulation of compounds, the production and uses thereof” (UNIVERSIDAD DE NAVARRA, priority 2010, dated 2016).
